Experimental data: ChEMBL document CHEMBL1150095, “Antitumor activity and stereochemistry of acetylenic alcohols from the sponge Cribrochalina vasculum” (1995)
Active and inactive are the calls of the source. No cut-off for these calls is given here.

Tests used:
Assay type in all cases: functional
IGROV-1 [1] = test: Antitumor activity against human IGROV1 cells
IGROV-1 [2] = test: Antitumor activity against human IGROV1 cell xenografted athymic mouse assessed as increase in life span at 50 mg/kg, ip once daily; details: route intraperitoneal
NCI-H522 = test: Antitumor activity against human NCI-H522 cells

With `C#C[C@@H](O)/C=C/CCCCCCCCCCCCCCC` the Activity (IGROV-1 [1]) was “Active”, the Activity (IGROV-1 [2]) was 36.5 days and the Activity (NCI-H522) was “Active”.
